SMILES strings stand for the structures. Read-outs that look alike come from different tables or passages of the source. Peptide text beside a SMILES is read from it.

For the experiment, the system named is HSV1. Format: cell-based, Human herpes simplex virus type 1. The note with it: for efficacy for reducing HSV1 infectivity (in words): Examples 2 and 3. The protocol:
African Green Monkey Kidney (Vero) cells were maintained in Eagle's minimum essential medium with Earle's salt (EMEM) and supplemented with 10% foetal calf serum (heat-inactivated), 4 mM L-glutamine, and 1% (v/v) nonessential amino acids, plus penicillin and streptomycin (100 IU/mg and […], respectively) (maintenance medium referred to as 10% EMEM). The cells were incubated at 37° C. in a humidified atmosphere of air with 5% CO2.
On harvesting, monolayers were washed in phosphate-buffered saline (PBS), and dislodged by incubating with trypsin in PBS for 30 min, before inactivating trypsin by addition of an equal volume of 10% EMEM and centrifuging at 500 g (5 min, 4° C.). Cell pellets were resuspended in 10% EMEM, prior to cell counting and seeding of 24-well plates. For antiviral assays, medium containing only 0.5% FCS was used (referred to as 0.5% EMEM).
Three separate passages of HSV1 virus were prepared by infecting Vero cells, and preparing semi-pure suspensions of virus from tissue culture supernatant and cell lysates, before freezing aliquots of virus at −85° C. Viral infectivity was assessed by carrying out plaque assays on serial dilutions of thawed aliquots (expressed in pfu/ml).
Peptides were obtained in lyophilised form from a commercial supplier (AltaBioscience, University of Birmingham or Advanced Biomedical), and were produced at 5 micromole scale. N-terminals were protected by addition of an acetyl group, and the C-terminals were protected by addition of an amide group.
Small quantities of peptide were weighed in sterile Eppendorf tubes, before addition of sufficient 0.5% EMEM to produce a 1.5 mM stock solution, which was frozen at −20° C. in aliquots.
Vero cells were seeded at 125,000 cells per well in 10% EMEM, and were incubated overnight resulting in confluent monolayers. […] Virus stocks (p3) were thawed, and diluted in 0.5% EMEM such that there were around 100 pfu in 100 μl. Each 24-well plate was inoculated separately. Firstly 100 μl of virus stock was added to the peptide or control medium arranged on a 96-well plate. This was incubated at 37° C. for ten minutes before inoculation. Medium was removed from four wells of a 24-well plate containing confluent Vero, and the 200 μl inoculum added to the appropriate well. Once all wells were treated, the 24-well plate was incubated for a further 60-80 minutes. Finally the peptide-containing inoculum was removed, and 1 ml of 1% EMEM containing 1% carboxymethylcellulose was added to each well. Plates were incubated for a further 22 hours or in some experiments 40 hours, before removal of overlay, and addition of 10% formaldehyde in PBS. After a further one hour incubation, fixative was removed, monolayers washed several times with tap water, and stained with carbol fuchsin solubilised in water. After 30 minutes stain was removed, and plates washed several times with tap water, before being air dried. Plaques were counted using an Olympus IX70 Inverting Microscope, and antiviral effect expressed as a percentage of the control value for each peptide concentration. The IC50 was calculated from plots of inhibitory effect against peptide concentration.

The term IC50 denotes the concentration that gives 50% inhibition. Turning to `CC(=O)N[C@@H](CC(C)C)C(=O)N[C@@H](CCCNC(=N)N)C(=O)N[C@@H](CCCCN)C(=O)N[C@@H](CCCNC(=N)N)C(=O)N[C@@H](CC(C)C)C(=O)N[C@@H](CC(C)C)C(=O)N[C@@H](CC(C)C)C(=O)N[C@@H](CCCNC(=N)N)C(=O)N[C@@H](CCCCN)C(=O)N[C@@H](CC(C)C)C(=O)N[C@@H](CCCNC(=N)N)C(=O)N[C@@H](CCCCN)C(=O)N[C@@H](CCCNC(=N)N)C(=O)N[C@@H](CC(C)C)C(=O)N[C@@H](CC(C)C)C(N)=O` [GIN 2] (Ac-LRKRLLLRKLRKRLL-NH2), the IC50 was > 40 µM and the “efficacy for reducing HSV1 infectivity (in words)” value is listed as “no, or poor, efficacy”.
Consider `CC(=O)N[C@@H](CC(C)C)C(=O)N[C@@H](CCCNC(=N)N)C(=O)N[C@@H](CCCCN)C(=O)N[C@@H](CC(C)C)C(=O)N[C@@H](CCCNC(=N)N)C(=O)N[C@@H](CCCCN)C(=O)N[C@@H](CCCNC(=N)N)C(=O)N[C@@H](CC(C)C)C(=O)N[C@@H](CC(C)C)C(=O)N[C@@H](CC(C)C)C(=O)N[C@@H](CCCNC(=N)N)C(=O)N[C@@H](CCCCN)C(=O)N[C@@H](CC(C)C)C(=O)N[C@@H](CCCNC(=N)N)C(=O)N[C@@H](CCCCN)C(N)=O` [GIN 4] (Ac-LRKLRKRLLLRKLRK-NH2), for which the IC50 is 29.5 µM and the “efficacy for reducing HSV1 infectivity (in words)” value is “no, or poor, efficacy”.
For the compound `CC(=O)N[C@@H](CC(C)C)C(=O)N[C@@H](CCCNC(=N)N)C(=O)N[C@@H](CCCCN)C(=O)N[C@@H](CC(C)C)C(=O)N[C@@H](CCCNC(=N)N)C(=O)N[C@@H](CCCCN)C(=O)N[C@@H](CCCNC(=N)N)C(=O)N[C@@H](CC(C)C)C(=O)N[C@@H](CC(C)C)C(=O)N[C@@H](CC(C)C)C(=O)N[C@@H](CCCNC(=N)N)C(=O)N[C@@H](CCCCN)C(N)=O` [GIN 5] (Ac-LRKLRKRLLLRK-NH2), the 50% inhibitory concentration (IC50) is > 40 µM and the “efficacy for reducing HSV1 infectivity (in words)” value is “no, or poor, efficacy”.
For `CC(=O)N[C@@H](CCC(=O)O)C(=O)N[C@@H](CCCNC(=N)N)C(=O)N[C@@H](CCCCN)C(=O)N[C@@H](CCC(=O)O)C(=O)N[C@@H](CCCNC(=N)N)C(=O)N[C@@H](CCCCN)C(=O)N[C@@H](CCCNC(=N)N)C(=O)N[C@@H](CCC(=O)O)C(=O)N[C@@H](CCC(=O)O)C(=O)N[C@@H](CCC(=O)O)C(=O)N[C@@H](CCCNC(=N)N)C(=O)N[C@@H](CCCCN)C(=O)N[C@@H](CCC(=O)O)C(=O)N[C@@H](CCCNC(=N)N)C(=O)N[C@@H](CCCCN)C(=O)N[C@@H](CCCNC(=N)N)C(=O)N[C@@H](CCC(=O)O)C(=O)N[C@@H](CCC(=O)O)C(N)=O` [GIN 6] (Ac-ERKERKREEERKERKREE-NH2), the IC50 is > 40 µM and the “efficacy for reducing HSV1 infectivity (in words)” value was “no, or poor, efficacy”.
The corresponding values for `CC(=O)N[C@@H](CC(C)C)C(=O)N[C@@H](CCCNC(=N)N)C(=O)N[C@@H](CCCCN)C(=O)N[C@@H](CC(C)C)C(=O)N[C@@H](CCCNC(=N)N)C(=O)N[C@@H](CCCCN)C(=O)N[C@@H](CCCNC(=N)N)C(=O)N[C@@H](CC(C)C)C(=O)N[C@@H](CCCNC(=N)N)C(=O)N[C@@H](CCCCN)C(=O)N[C@@H](CC(C)C)C(=O)N[C@@H](CCCNC(=N)N)C(=O)N[C@@H](CCCCN)C(=O)N[C@@H](CCCNC(=N)N)C(N)=O` [GIN 8] (Ac-LRKLRKRLRKLRKR-NH2) are 13 µM and “had efficacy”.
The corresponding values for `CC(=O)N[C@@H](CC(C)C)C(=O)N[C@@H](CCCNC(=N)N)C(=O)N[C@@H](CCCCN)C(=O)N[C@@H](CC(C)C)C(=O)N[C@@H](CCCNC(=N)N)C(=O)N[C@@H](CCCCN)C(=O)N[C@@H](CC(C)C)C(=O)N[C@@H](CCCNC(=N)N)C(=O)N[C@@H](CCCCN)C(=O)N[C@@H](CC(C)C)C(=O)N[C@@H](CCCNC(=N)N)C(=O)N[C@@H](CCCCN)C(=O)N[C@@H](CC(C)C)C(=O)N[C@@H](CCCNC(=N)N)C(=O)N[C@@H](CCCCN)C(=O)N[C@@H](CC(C)C)C(=O)N[C@@H](CCCNC(=N)N)C(=O)N[C@@H](CCCCN)C(N)=O` [GIN 9] (Ac-LRKLRKLRKLRKLRKLRK-NH2) are 15.5 µM and “had efficacy”.
On to `CC(=O)N[C@@H](CCCNC(=N)N)C(=O)N[C@@H](CC(C)C)C(=O)N[C@@H](CC(C)C)C(=O)N[C@@H](CCCNC(=N)N)C(=O)N[C@@H](CC(C)C)C(=O)N[C@@H](CC(C)C)C(=O)N[C@@H](CCCNC(=N)N)C(=O)N[C@@H](CC(C)C)C(=O)N[C@@H](CC(C)C)C(=O)N[C@@H](CCCNC(=N)N)C(=O)N[C@@H](CC(C)C)C(=O)N[C@@H](CC(C)C)C(=O)N[C@@H](CCCNC(=N)N)C(=O)N[C@@H](CC(C)C)C(=O)N[C@@H](CC(C)C)C(=O)N[C@@H](CCCNC(=N)N)C(=O)N[C@@H](CC(C)C)C(=O)N[C@@H](CC(C)C)C(N)=O` [GIN 10] (Ac-RLLRLLRLLRLLRLLRLL-NH2), for which the “efficacy for reducing HSV1 infectivity (in words)” value was “no, or poor, efficacy”. Also, the IC50 (HSV1, Vero cells, Table 4 (Example 2), read-out: Apparent IC50) turned out to be 39 µM. Also, the IC50 (HSV-1, Vero cells, Table 6 (Example 3), read-out: IC50) was 39 µM.
Regarding `CC(=O)N[C@@H](CC(C)C)C(=O)N[C@@H](CCCNC(=N)N)C(=O)N[C@@H](CCCCN)C(=O)N[C@@H](CC(C)C)C(=O)N[C@@H](CCCNC(=N)N)C(=O)N[C@@H](CCCCN)C(=O)N[C@@H](CCCNC(=N)N)C(=O)N[C@@H](CC(C)C)C(=O)N[C@@H](CC(C)C)C(=O)N[C@@H](CCCNC(=N)N)C(=O)N[C@@H](CC(=O)O)C(=O)N[C@@H](C)C(=O)N[C@@H](CC(=O)O)C(=O)N[C@@H](CC(=O)O)C(=O)N[C@@H](CC(C)C)C(=O)N[C@@H](CCC(N)=O)C(=O)N[C@@H](CCCCN)C(=O)N[C@@H](CCCNC(=N)N)C(=O)N[C@@H](CC(C)C)C(=O)N[C@@H](C)C(N)=O` [GIN 12, LRKLRKRLLR DADDLQKRLA] (Ac-LRKLRKRLLRDADDLQKRLA-NH2), the 50% inhibitory concentration (IC50) is > 40 µM and the “efficacy for reducing HSV1 infectivity (in words)” value is reported as “no, or poor, efficacy”.
For `CC(=O)N[C@@H](CCCNC(=N)N)C(=O)N[C@@H](CC(=O)O)C(=O)N[C@@H](C)C(=O)N[C@@H](CC(=O)O)C(=O)N[C@@H](CC(=O)O)C(=O)N[C@@H](CC(C)C)C(=O)N[C@@H](CCC(N)=O)C(=O)N[C@@H](CCCCN)C(=O)N[C@@H](CCCNC(=N)N)C(=O)N[C@@H](CCCNC(=N)N)C(=O)N[C@@H](CC(=O)O)C(=O)N[C@@H](C)C(=O)N[C@@H](CC(=O)O)C(=O)N[C@@H](CC(=O)O)C(=O)N[C@@H](CC(C)C)C(=O)N[C@@H](CCC(N)=O)C(=O)N[C@@H](CCCCN)C(=O)N[C@@H](CCCNC(=N)N)C(N)=O` [GIN 13, RDADDLQKR RDADDLQKR] (Ac-RDADDLQKRRDADDLQKR-NH2), the half-maximal inhibitory concentration (IC50) was > 40 µM and the “efficacy for reducing HSV1 infectivity (in words)” value is reported as “no, or poor, efficacy”.
On to `CSCC[C@H](NC(=O)[C@H](CCCNC(=N)N)NC(=O)[C@H](C)NC(=O)[C@H](CCCNC(=N)N)NC(=O)[C@H](CC(C)C)NC(=O)[C@H](CCCNC(=N)N)NC(=O)[C@H](CCC(=O)O)NC(=O)CNC(=O)[C@H](CCC(=O)O)NC(=O)[C@H](CCSC)NC(=O)[C@H](CCCNC(=N)N)NC(=O)[C@H](C)NC(=O)[C@H](CCCNC(=N)N)NC(=O)[C@H](CC(C)C)NC(=O)[C@H](CCCNC(=N)N)NC(=O)[C@H](CCC(=O)O)NC(=O)CNC(C)=O)C(=O)N[C@@H](CCC(=O)O)C(N)=O` [GIN 14] (Ac-GERLRARMEGERLRARME-NH2), for which the IC50 was > 40 µM and the “efficacy for reducing HSV1 infectivity (in words)” value is “no, or poor, efficacy”.
For `CSCC[C@H](NC(=O)[C@H](CCC(=O)O)NC(=O)[C@H](CCC(=O)O)NC(=O)[C@H](CCSC)NC(=O)[C@H](CCCNC(=N)N)NC(=O)[C@H](C)NC(=O)[C@H](CCCNC(=N)N)NC(=O)[C@H](CC(C)C)NC(=O)[C@H](CCCNC(=N)N)NC(=O)[C@H](CCSC)NC(=O)[C@H](CCC(=O)O)NC(=O)[C@H](CCC(=O)O)NC(=O)[C@H](CCSC)NC(=O)[C@H](CCCNC(=N)N)NC(=O)[C@H](C)NC(=O)[C@H](CCCNC(=N)N)NC(=O)[C@H](CC(C)C)NC(=O)[C@H](CCCNC(=N)N)NC(C)=O)C(N)=O` [GIN 15] (Ac-RLRARMEEMRLRARMEEM-NH2), the IC50 was > 40 µM and the “efficacy for reducing HSV1 infectivity (in words)” value is on record as “no, or poor, efficacy”.

Source of the values: patent publication US7691382B2, “Antiviral polypeptides comprising tandem repeats of APOE 141-149 and variants thereof” (priority 2003, dated 2010).
